The target in data set [1] is T1, ABCG2 (Homo sapiens, UniProt Q9UNQ0).
T1 sequence (Q9UNQ0 1-655): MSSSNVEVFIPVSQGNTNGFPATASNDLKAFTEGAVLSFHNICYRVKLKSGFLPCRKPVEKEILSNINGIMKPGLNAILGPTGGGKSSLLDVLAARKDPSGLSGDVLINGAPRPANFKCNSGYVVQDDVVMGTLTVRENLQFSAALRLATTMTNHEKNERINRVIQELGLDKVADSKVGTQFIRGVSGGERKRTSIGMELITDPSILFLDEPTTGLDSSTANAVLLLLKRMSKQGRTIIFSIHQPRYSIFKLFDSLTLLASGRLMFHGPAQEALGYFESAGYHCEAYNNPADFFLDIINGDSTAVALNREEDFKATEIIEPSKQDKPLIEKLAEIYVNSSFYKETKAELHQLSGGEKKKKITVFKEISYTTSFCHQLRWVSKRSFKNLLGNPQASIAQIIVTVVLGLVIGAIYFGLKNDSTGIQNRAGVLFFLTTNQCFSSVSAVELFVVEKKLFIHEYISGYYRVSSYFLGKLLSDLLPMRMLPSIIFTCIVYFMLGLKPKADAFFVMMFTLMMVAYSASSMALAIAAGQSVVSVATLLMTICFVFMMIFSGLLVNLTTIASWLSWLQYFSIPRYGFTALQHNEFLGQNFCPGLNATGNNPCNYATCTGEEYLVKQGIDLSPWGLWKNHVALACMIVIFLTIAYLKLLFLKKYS

For data set [2], the target named is T2, human A3 adenosine receptor (Homo sapiens, UniProt P0DMS8).
T2 sequence (P0DMS8 1-318): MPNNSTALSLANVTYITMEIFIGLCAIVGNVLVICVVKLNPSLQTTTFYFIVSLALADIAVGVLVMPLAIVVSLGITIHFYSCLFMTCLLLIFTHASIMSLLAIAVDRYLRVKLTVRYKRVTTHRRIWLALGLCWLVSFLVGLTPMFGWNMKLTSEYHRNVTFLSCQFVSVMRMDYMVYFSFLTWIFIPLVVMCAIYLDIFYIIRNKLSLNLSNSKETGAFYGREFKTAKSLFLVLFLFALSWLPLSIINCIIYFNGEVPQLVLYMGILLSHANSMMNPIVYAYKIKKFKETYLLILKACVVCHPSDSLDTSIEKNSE
The settings on record: agonists; Tables S1 – S4; cited from earlier work.

Another data set concerns P-gp (ABCB1). The settings on record: cited from earlier work.
The test system of another data set is human A2A receptor. The conditions noted are these: cited from earlier work.
The next data set relates to human A1 receptor. The settings on record: cited from earlier work.
For data set [3], the target named is T1, ABCG2. As to the kind of experiment: in vitro. The settings on record: pH 6.8.
The target in data set [4] is T1, ABCG2. Description: ATPase activity of ABCG2, total membranes of High-Five insect cells.
For data set [5], the target named is mouse A3 adenosine receptor. The settings on record: read-out: A3 adenosine receptor affinity Ki; mouse homologue; cited from earlier work.

SMILES strings stand for the structures. Where two headings read alike, the source gives them in different places.

As for `CNc1nc(C#Cc2ccc(Cl)s2)nc2c1ncn2[C@H]1[C@H](O)[C@H](O)[C@@]2(C(=O)Oc3ccccc3)C[C@H]12` [Compound 50], the “modulation of ABCG2 ATP hydrolysis” value on ABCG2 [1] is on record as “stimulated ATP hydrolysis at multiple concentrations”. For the same compound, in data set [2], the “human A3 adenosine receptor affinity” value is “single digit nM affinity”. Regarding `CNC(=O)[C@]12C[C@@H]1[C@@H](n1cnc3c(NCc4cccc(Cl)c4)nc(-n4cc(-c5ccc(F)c(F)c5)nn4)nc31)[C@H](O)[C@@H]2O` [Compound 28], on ABCG2 [1] (human, 20 min, 2.5 μM, pH 6.8), the “modulation of ABCG2 ATP hydrolysis” value is listed as “inhibited only at 10 μM”. `CNC(=O)[C@]12C[C@@H]1[C@@H](n1cnc3c(NCc4cccc(-n5cc(-c6ccc(F)c(F)c6)nn5)c4)nc(C#Cc4cc(F)c(F)c(F)c4)nc31)[C@H](O)[C@@H]2O` [Compound 20]: the “modulation of ABCG2 ATP hydrolysis” value on ABCG2 [1] is reported as “inhibited ATP hydrolysis at both concentrations”. For `CNC(=O)[C@]12C[C@@H]1[C@@H](n1cnc3c(NCc4cccc(-n5cc(-c6ccc(F)c(F)c6)nn5)c4)nc(C#Cc4ccc(F)c(F)c4)nc31)[C@H](O)[C@@H]2O` [Compound 17], the “effect on ATPase activity of P-gp” value in the data set on P-gp (ABCB1) is on record as “partially inhibited the basal ATPase activity of P-gp”. Further, the “human A3 adenosine receptor affinity” value in data set [2] is “single digit nM affinity”. On to `CNC(=O)[C@]12C[C@@H]1[C@@H](n1cnc3c(NCc4cccc(-n5cc(-c6ccc(F)c(F)c6)nn5)c4)nc(C#Cc4ccc(F)cc4F)nc31)[C@H](O)[C@@H]2O` [Compound 19], for which the “modulation of ABCG2 ATP hydrolysis” value at ABCG2 [1] (human, 20 min, 2.5 μM, pH 6.8) is “inhibited only at 10 μM”. Turning to `COc1cc(CCNC2=NC(C#Cc3ccc(Cl)s3)=NC3=NC=NC32)ccc1O` (centres unmarked) [Compound 37c], in the data set on human A2A receptor (adenine series), the “activity at human A2A receptor” value is “inactive”. Further, the “activity at human A1 receptor” value with human A1 receptor (adenine series) is “inactive”. Take `CNC(=O)[C@H]1O[C@@H](n2cnc3c(NCc4cccc(I)c4)nc(Cl)nc32)[C@H](O)[C@@H]1O` [Compound 4, reference compound]: at ABCG2 [1], the “modulation of ABCG2 ATP hydrolysis” value was “stimulated ATP hydrolysis at multiple concentrations”. By inhibition is commonly meant the change of the read-out against control, counted positive when it falls. Low values mean a response near the control, high ones a response far below the control. `CNC(=O)[C@]12C[C@@H]1[C@@H](n1cnc3c(NCc4cccc(-n5cc(-c6ccc(F)c(F)c6)nn5)c4)nc(C#Cc4ccc(F)cc4)nc31)[C@H](O)[C@@H]2O` [Compound 16] registered an inhibition at 20 min, 2.5 µM against ABCG2 [3] of no less than 50%.

With `CNC(=O)[C@]12C[C@@H]1[C@@H](n1cnc3c(NCc4cccc(Cl)c4)nc(C#Cc4ccc(F)c(F)c4)nc31)[C@H](O)[C@@H]2O` [Compound 5], in the data set with P-gp (ABCB1), the “effect on ATPase activity of P-gp” value is on record as “stimulate the ATPase activity of P-gp”. The “modulation of ABCG2 ATP hydrolysis” value on ABCG2 [4] is recorded as “stimulated ATP hydrolysis at multiple concentrations”. The “ATPase activity of ABCG2 % Stimulation (upward arrow)” value at ABCG2 [4] (2.5 μM, basal ATPase activity = 0%, mean ± SD, three experiments) is no less than 50%. For the same compound, in data set [2], the “human A3 adenosine receptor affinity” value is recorded as “single digit nM affinity”. Regarding `CCCNc1nc(C#Cc2ccc(Cl)s2)nc2c1ncn2[C@@H]1O[C@H](C(=O)NC)[C@@H](O)[C@H]1O` [Compound 33], the “modulation of ABCG2 ATP hydrolysis” value on ABCG2 [1] is “stimulated ATP hydrolysis at multiple concentrations”. Take `CNC(=O)[C@H]1O[C@@H](n2cnc3c(NC)nc(C#Cc4ccc(Cl)s4)nc32)[C@H](O)[C@@H]1O` [Compound 32]: the “effect on ATPase activity of P-gp” value with P-gp (ABCB1) is “very weak at P-gp”. Turning to `CCCNc1nc(C#Cc2ccc(Cl)s2)nc2c1ncn2[C@H]1[C@H](O)[C@H](O)[C@@]2(C(=O)NC)C[C@H]12` [Compound 26], on ABCG2 [1], the “modulation of ABCG2 ATP hydrolysis” value was “stimulated ATP hydrolysis at multiple concentrations”. Turning to `CNC(=O)[C@]12C[C@@H]1[C@@H](n1cnc3c(NCc4cccc(Cl)c4)nc(C#Cc4cccc(Cl)c4)nc31)[C@H](O)[C@@H]2O` [Compound 10], the “modulation of ABCG2 ATP hydrolysis” value at ABCG2 [4] was “stimulated ATP hydrolysis at 2.5 μM, but not 10 μM”. For `CNC(=O)[C@]12C[C@@H]1[C@@H](n1cnc3c(N[C@H]4C[C@@H]4c4ccc(F)c(F)c4)nc(C#Cc4cccc(F)c4)nc31)[C@H](O)[C@@H]2O` [Compound 15], the “modulation of ABCG2 ATP hydrolysis” value at ABCG2 [1] (human, 20 min, 2.5 μM, pH 6.8) is “stimulated ATP hydrolysis at 2.5 μM, but not 10 μM”. Further, the “human A3 adenosine receptor affinity” value in data set [2] was “single digit nM affinity”. `CNC(=O)[C@]12C[C@@H]1[C@@H](n1cnc3c(NCc4cccc(Cl)c4)nc(C#Cc4ccc(Cl)s4)nc31)[C@H](O)[C@@H]2O` [Compound 29]: the “modulation of ABCG2 ATP hydrolysis” value on ABCG2 [1] is on record as “stimulated ATP hydrolysis at multiple concentrations”.

Regarding `O[C@@H]1[C@H](O)[C@@H]2C[C@@H]2[C@H]1n1cnc2c(NCc3cccc(Cl)c3)nc(C#Cc3ccc(F)c(F)c3)nc21` [Compound 30], in the data set with P-gp (ABCB1) (2.5 μM), the “increase of P-gp ATPase activity” value is on record as 116%. In the case of `CNc1nc(C#Cc2ccc(Cl)s2)nc2c1ncn2[C@H]1[C@H](O)[C@H](O)[C@@]2(C(=O)OC)C[C@H]12` [Compound 27], the “modulation of ABCG2 ATP hydrolysis” value at ABCG2 [1] is on record as “stimulated ATP hydrolysis at multiple concentrations”.

On to `CCOC(=O)[C@]12C[C@@H]1[C@@H](n1cnc3c(NCCc4ccc(O)c(OC)c4)nc(C#Cc4ccc(Cl)s4)nc31)[C@H](O)[C@@H]2O` [Compound 55], for which, at ABCG2 [1] (human, 20 min, 2.5 μM, pH 6.8), the “ATPase activity of ABCG2 % Stimulation (upward arrow)” value is no less than 50%.

As to `CCOC(=O)[C@]12C[C@@H]1[C@@H](n1ccc3c(NCCCc4ccc(OC)c(O)c4)nc(C#Cc4ccccc4)nc31)[C@H](O)[C@@H]2O` [Compound 63], the “ATPase activity of ABCG2 % Stimulation (upward arrow)” value at ABCG2 [1] (human, 20 min, 2.5 μM, pH 6.8) is listed as no less than 50%.

For `CCOC(=O)[C@]12C[C@@H]1[C@@H](n1ccc3c(NCCCc4ccc(OC)c(O)c4)nc(C#Cc4ccc(Cl)s4)nc31)[C@H](O)[C@@H]2O` [Compound 64], the “ATPase activity of ABCG2 % Stimulation (upward arrow)” value at ABCG2 [1] (human, 20 min, 2.5 μM, pH 6.8) is on record as no less than 50%. For the compound `CCCOC(=O)[C@]12C[C@@H]1[C@@H](n1cnc3c(NC)nc(C#Cc4ccc(Cl)s4)nc31)[C@H](O)[C@@H]2O` [Compound 45], at ABCG2 [1], the “modulation of ABCG2 ATP hydrolysis” value is recorded as “stimulated ATP hydrolysis at multiple concentrations”. In addition, in data set [2], the “human A3 adenosine receptor affinity” value is on record as “single digit nM affinity”. Turning to `CNC(=O)[C@]12C[C@@H]1[C@@H](n1cnc3c(NCc4cccc(-n5cc(-c6ccc(F)c(F)c6)nn5)c4)nc(C#Cc4ccc(C(F)(F)F)cc4)nc31)[C@H](O)[C@@H]2O` [Compound 21], the “modulation of ABCG2 ATP hydrolysis” value on ABCG2 [1] (human, 20 min, 2.5 μM, pH 6.8) is recorded as “inhibited only at 10 μM”. The Ki is a dissociation constant, usually derived from enzyme kinetics or from competition with a known ligand. As to `CCOC(=O)[C@]12C[C@@H]1[C@@H](n1ccc3c(NCCc4ccccc4)nc(C#Cc4ccccc4)nc31)[C@H](O)[C@@H]2O` [Compound 60], in the data set on human A2A receptor, the “activity at human A2A receptor” value was “inactive”. In addition, the “activity at human A1 receptor” value in the data set with human A1 receptor was “inactive”. Besides, the Ki in data set [5] was greater than 10 µM.

`CNC(=O)[C@]12C[C@@H]1[C@@H](n1cnc3c(NC)nc(C#Cc4ccc(Cl)s4)nc31)[C@H](O)[C@@H]2O` [Compound 25]: the “modulation of ABCG2 ATP hydrolysis” value on ABCG2 [4] was “stimulated ATP hydrolysis at 2.5 μM, but not 10 μM”. Still for that read-out and setting: next, `CNC(=O)[C@]12C[C@@H]1[C@@H](n1cnc3c(NCc4cccc(Cl)c4)nc(C#Cc4ccccc4)nc31)[C@H](O)[C@@H]2O` [Compound 8]: “stimulated ATP hydrolysis at 2.5 μM, but not 10 μM”.

Source of the values: PMC8893036 (European journal of medicinal chemistry, 2022).
